Experimental data: US20040077674A1, “Mappicine analogs, intermediates in the synthesis of mappicine analogs and methods of synthesis of mappicine analogs” (priority 2002, published 2004)
Where “and” joins values, the source holds several entries; their conditions need not be identical. Equal entries are not always repeated. Where two headings read alike, the source gives them in different places.

Legend:
[1] = tested on: HIV-1 replication; test: HIV-1 replication in cultured cells (cell culture viral growth assay); format: cell-based
[2] = target: T1, RNA-dependent DNA polymerase activity of HIV reverse transcriptase (Human immunodeficiency virus type 1 group M subtype B, UniProt P03366); test: RNA-dependent DNA polymerase activity assay of HIV reverse transcriptase; format: biochemical, HIV-1; conditions: 10 μM inhibitor concentration; activity in presence / in absence of analog x 100; read-out: Residual activity (%) Polymerase
T1 construct: made in house
Procedure, shortened: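 Single-concentration test of mappicine analogs at 10 μM final against the RNA-dependent DNA polymerase activity of HIV RT. Value is % residual activity: polymerase activity with analog divided by activity without analog, ×100.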

[3] = target: T2, RNase H activity of HIV reverse transcriptase (Human immunodeficiency virus type 1 group M subtype B, UniProt P03366); test: Fluorescence (FRET)-based RNase H assay of HIV reverse transcriptase; format: biochemical, HIV-1; conditions: for remaining activity at 10 µM: 10 μM inhibitor concentration, activity in presence / in absence of analog x 100, read-out: Residual activity (%) RNase H; for IC50: in vitro, read-out: IC50 (μM) against HIV RNase H in vitro
T2 construct: 2.5 nM of the p51/p66 RT heterodimer in the assay; made in house

[4] = tested on: cells; conditions: cited from earlier work
[5] = tested on: HIV-1 replication; conditions: published RNase H inhibitors; cited from earlier work
[6] = target: T2, RNase H activity of HIV reverse transcriptase; conditions: read-out: IC50 of RNase H inhibition; literature (Borkow et al. 1997); cited from earlier work
[7] = tested on: cells; conditions: cited from earlier work; remark: listed apart in the source
[8] = tested on: mutant HIV-1 strain with V106A+Y181C in the viral reverse transcriptase; test: Replication of NNRTI-resistant mutant HIV-1 strain V106A+Y181C in cultured cells; format: cell-based; conditions: V106A+Y181C mutant HIV-1; read-out: EC50 of inhibition of replication of resistant virus strain
[9] = tested on: mutant HIV-1 strain with K103N+Y181C in the viral reverse transcriptase; test: Replication of NNRTI-resistant mutant HIV-1 strain K103N+Y181C in cultured cells; format: cell-based; conditions: K103N+Y181C mutant HIV-1; read-out: EC50 of inhibition of replication of resistant virus strain
[10] = Human immunodeficiency virus 1, cell culture viral growth assays, read-out: EC50 (μM) against HIV-1 replication

SMILES	remaining activity at 10 µM [2] [%]	remaining activity at 10 µM [3] [%]	IC50 [3]	antiviral activity against HIV-1 replication in cultured cells (in words) [5]	further results
CCC(O)c1cc2n(c(=O)c1C)Cc1c-2nc2ccc(NC(=O)OC(C)(C)C)cc2c1[Si](C)(C)C (stereo not shown) [5 (AG 2M), 2-tert-Butyloxycarbonylamino-7-(1-hydroxypropyl)-8-methyl-12-trimethylsilanyl-11H-indolizino [1,2-b]quinolin-9-one]	80	47	< 10 µM and 8 µM	–	EC50 [1, 10]: ~5 µM
CCc1c2c(nc3ccc(NC(=O)OC(C)(C)C)cc13)-c1cc(C(O)CC)c(C)c(=O)n1C2 (stereo not shown) [5 (AG 5M), 2-tert-Butyloxycarbonylamino-12-ethyl-7-(1-hydroxypropyl)-8-methyl-11H-indolizino[1,2-b]quinolin-9-one]	87	68	–	–	–
CCc1c2c(nc3ccc(N)cc13)-c1cc(C(O)CC)c(C)c(=O)n1C2 (stereo not shown) [5 (AG 6M), 2-Amino-12-ethyl-7-(1-hydroxypropyl)-8-methyl-1 1H-indolizinol[1,2-b]quinolin-9-one]	76	57	< 10 µM and 10 µM	–	EC50 [1, 10]: ~5 µM
CCc1c2c(nc3ccc(O)cc13)-c1cc(C(O)CC)c(C)c(=O)n1C2 (stereo not shown) [5 (AG 8M), 12-Ethyl-2-hydroxy-7-(1-hydroxypropyl)-8-methyl-11H-indolizino[1,2-b]quinolin-9-one]	69	87	–	–	–
CC(C)(C)c1ccc(C(=O)NN=Cc2c(O)ccc3ccccc23)cc1 [BBNH, N-4-(t-butylbenzoyl)-2-hydroxy-1-naphthaldehyde hydrazone]	–	–	1.8 µM	demonstrated antiviral activity against HIV-1 replication in cultured cells	toxicity to cells (in words) [4]: highly toxic to cells; IC50 [6]: ~2 µM
O=C(O)C(=O)CC(=O)c1ccc(NC(=O)c2ccccc2)s1 [BTOBA, 4-[5-(benzoylamino)thien-2-yl]-2,4-dioxobutanoic acid]	–	–	–	cannot inhibit HIV-1 replication in cultured cells	ability to penetrate cells (in words) [7]: Neither CPHM nor BTOBA are able to penetrate cells
O=C(O)C(=NNc1ccc(Cl)cc1)C(=O)O [CPHM, 2-[(4-chlorophenyl)-hydrazono]-malonic acid]	–	–	–	cannot inhibit HIV-1 replication in cultured cells	ability to penetrate cells (in words) [7]: Neither CPHM nor BTOBA are able to penetrate cells
CCCc1c2c(nc3ccc(Cl)cc13)-c1cc(C(O)CCC3CCCCC3)c(C)c(=O)n1C2 (stereo not shown) [Compound 7.5.6]	–	–	–	–	EC50 ([1]; wild-type HIV-1 in cultured cells, read-out: EC50 of inhibition of replication of wild-type HIV-1): ~3 µM; EC50 [8]: 4.2 µM; % inhibition of RNase H at 20 μM ([3]; 20 μM inhibitor concentration): 100%; inhibitory activity against HIV-1 RNase H (in words) ([3]; dose-response curves FIG. 13, 10 μM or 20 μM screens): possess inhibitory activity against HIV-1 RNase H; EC50 [9]: 3.5 µM
